Data on two compounds can be found in article PMC9030254, “Target Hopping from Protein Kinases to PXR: Identification of Small-Molecule Protein Kinase Inhibitors as Selective Modulators of Pregnane X Receptor from TüKIC Library” (Cells, 2022).

Common to all, as to test: Kinase profiling
Holding throughout (assay type): biochemical

In assay [1] the target is T1, FER (Homo sapiens, UniProt P16591).
T1 construct: purchased ProQinase (Freiburg, Germany)
How it is done:
(§1) The analysis was performed by ProQinase (Freiburg, Germany).

In assay [2] the target is T2, PKCeta (Homo sapiens, UniProt P24723).
T2 construct: purchased ProQinase (Freiburg, Germany)
On the procedure: as §1

Assay [3] addresses T3, MST2 (Homo sapiens, UniProt Q13188).
T3 construct: purchased ProQinase (Freiburg, Germany)
T3 sequence (Q13188 1-491): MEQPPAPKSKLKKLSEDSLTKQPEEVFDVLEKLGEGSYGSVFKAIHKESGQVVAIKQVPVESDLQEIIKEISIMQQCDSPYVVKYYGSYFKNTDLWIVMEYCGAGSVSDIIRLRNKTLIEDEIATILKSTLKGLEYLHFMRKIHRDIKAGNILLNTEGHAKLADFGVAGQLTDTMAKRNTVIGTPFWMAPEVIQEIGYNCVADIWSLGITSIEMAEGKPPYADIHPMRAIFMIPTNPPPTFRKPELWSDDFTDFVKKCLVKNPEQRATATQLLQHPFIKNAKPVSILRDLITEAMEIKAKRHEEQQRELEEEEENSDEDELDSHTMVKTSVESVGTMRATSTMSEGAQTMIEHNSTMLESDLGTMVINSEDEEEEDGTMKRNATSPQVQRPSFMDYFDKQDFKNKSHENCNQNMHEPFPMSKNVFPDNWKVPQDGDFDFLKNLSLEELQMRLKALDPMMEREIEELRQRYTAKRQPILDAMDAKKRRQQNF
On the procedure: as §1

Assay [4] concerns the target T4, EPHB2 (Homo sapiens, UniProt P29323).
T4 construct: purchased ProQinase (Freiburg, Germany)
T4 sequence (P29323 19-1055): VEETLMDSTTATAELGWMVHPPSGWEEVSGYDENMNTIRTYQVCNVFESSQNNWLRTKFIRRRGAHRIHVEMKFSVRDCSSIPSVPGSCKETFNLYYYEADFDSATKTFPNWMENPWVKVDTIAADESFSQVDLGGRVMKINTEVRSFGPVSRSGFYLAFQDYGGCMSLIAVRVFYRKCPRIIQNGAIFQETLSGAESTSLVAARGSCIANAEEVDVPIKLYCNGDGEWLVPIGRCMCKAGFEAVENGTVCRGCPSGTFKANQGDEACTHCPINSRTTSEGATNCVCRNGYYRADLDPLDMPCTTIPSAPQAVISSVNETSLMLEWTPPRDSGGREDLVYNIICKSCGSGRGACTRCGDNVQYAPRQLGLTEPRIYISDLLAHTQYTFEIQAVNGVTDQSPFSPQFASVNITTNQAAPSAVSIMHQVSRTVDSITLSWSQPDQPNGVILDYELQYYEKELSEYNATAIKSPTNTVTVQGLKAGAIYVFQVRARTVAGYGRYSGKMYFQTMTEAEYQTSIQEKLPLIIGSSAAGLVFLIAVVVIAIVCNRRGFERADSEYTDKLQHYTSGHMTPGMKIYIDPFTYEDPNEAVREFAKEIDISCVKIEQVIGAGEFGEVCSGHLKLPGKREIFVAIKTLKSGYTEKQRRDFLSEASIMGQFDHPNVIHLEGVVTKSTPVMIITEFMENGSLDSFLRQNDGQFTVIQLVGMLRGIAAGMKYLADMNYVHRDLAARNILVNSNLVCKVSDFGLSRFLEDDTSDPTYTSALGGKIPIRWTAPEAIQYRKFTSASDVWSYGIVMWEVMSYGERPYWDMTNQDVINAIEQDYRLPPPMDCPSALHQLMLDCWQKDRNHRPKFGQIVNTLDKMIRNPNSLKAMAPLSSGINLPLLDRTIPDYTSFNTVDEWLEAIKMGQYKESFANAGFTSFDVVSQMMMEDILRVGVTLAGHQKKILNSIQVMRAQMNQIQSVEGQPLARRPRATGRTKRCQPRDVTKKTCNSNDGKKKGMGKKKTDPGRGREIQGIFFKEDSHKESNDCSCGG
How it is done:
as §1

Assay [5] concerns the target T5, AuroraB (Homo sapiens, UniProt Q96GD4).
T5 construct: purchased ProQinase (Freiburg, Germany)
On the procedure:
as §1

The target of assay [6] is T6, BRSK1 (Homo sapiens, UniProt Q8TDC3).
T6 construct: purchased ProQinase (Freiburg, Germany)
T6 sequence (Q8TDC3 1-778): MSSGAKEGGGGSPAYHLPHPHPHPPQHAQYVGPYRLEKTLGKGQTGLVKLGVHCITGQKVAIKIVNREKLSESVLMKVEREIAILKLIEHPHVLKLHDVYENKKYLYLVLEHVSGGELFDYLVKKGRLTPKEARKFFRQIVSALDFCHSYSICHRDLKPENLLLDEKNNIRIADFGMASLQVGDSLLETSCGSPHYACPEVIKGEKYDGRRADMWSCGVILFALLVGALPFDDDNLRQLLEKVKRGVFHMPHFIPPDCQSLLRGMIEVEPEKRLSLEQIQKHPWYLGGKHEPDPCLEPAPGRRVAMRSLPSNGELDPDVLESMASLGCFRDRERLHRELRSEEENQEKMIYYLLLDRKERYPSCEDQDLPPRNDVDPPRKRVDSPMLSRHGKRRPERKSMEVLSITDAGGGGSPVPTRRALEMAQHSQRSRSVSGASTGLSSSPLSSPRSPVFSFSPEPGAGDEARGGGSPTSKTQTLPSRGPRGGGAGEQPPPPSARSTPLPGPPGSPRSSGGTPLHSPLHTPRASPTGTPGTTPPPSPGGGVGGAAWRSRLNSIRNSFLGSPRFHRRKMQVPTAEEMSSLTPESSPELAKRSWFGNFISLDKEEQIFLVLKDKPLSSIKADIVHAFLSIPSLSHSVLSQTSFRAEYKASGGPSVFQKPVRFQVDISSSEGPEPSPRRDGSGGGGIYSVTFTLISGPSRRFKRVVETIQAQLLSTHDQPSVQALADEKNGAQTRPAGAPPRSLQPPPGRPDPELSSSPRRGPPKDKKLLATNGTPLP
How it is done: as §1

T1 sequence (P16591 whole entry): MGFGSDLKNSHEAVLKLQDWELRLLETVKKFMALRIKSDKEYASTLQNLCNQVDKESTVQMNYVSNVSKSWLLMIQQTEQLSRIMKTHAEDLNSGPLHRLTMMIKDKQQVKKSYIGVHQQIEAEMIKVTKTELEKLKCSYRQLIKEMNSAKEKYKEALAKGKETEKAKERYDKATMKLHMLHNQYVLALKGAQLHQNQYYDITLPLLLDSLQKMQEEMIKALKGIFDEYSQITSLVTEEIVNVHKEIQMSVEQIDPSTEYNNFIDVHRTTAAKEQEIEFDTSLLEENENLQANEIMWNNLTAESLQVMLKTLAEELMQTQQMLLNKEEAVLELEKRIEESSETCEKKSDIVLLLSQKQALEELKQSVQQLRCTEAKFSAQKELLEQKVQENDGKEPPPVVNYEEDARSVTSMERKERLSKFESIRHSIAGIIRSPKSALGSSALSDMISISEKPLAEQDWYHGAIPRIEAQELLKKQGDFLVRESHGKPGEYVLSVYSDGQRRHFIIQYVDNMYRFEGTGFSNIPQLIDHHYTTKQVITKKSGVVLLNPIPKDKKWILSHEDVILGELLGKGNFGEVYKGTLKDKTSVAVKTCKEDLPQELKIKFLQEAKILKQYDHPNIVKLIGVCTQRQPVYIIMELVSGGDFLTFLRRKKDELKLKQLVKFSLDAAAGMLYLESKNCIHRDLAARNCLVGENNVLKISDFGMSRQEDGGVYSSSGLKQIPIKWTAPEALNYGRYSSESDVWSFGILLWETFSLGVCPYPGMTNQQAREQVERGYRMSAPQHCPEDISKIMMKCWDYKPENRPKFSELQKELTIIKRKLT
T5 sequence (Q96GD4 whole entry): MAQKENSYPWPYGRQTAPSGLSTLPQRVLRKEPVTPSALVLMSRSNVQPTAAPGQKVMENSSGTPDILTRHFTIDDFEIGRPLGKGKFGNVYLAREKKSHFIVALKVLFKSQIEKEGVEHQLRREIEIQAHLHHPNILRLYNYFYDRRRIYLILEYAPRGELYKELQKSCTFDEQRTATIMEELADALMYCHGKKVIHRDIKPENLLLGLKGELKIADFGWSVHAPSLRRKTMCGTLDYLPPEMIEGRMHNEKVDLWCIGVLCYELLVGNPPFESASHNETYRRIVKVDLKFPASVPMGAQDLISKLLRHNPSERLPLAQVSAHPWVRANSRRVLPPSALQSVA
T2 sequence (P24723 whole entry): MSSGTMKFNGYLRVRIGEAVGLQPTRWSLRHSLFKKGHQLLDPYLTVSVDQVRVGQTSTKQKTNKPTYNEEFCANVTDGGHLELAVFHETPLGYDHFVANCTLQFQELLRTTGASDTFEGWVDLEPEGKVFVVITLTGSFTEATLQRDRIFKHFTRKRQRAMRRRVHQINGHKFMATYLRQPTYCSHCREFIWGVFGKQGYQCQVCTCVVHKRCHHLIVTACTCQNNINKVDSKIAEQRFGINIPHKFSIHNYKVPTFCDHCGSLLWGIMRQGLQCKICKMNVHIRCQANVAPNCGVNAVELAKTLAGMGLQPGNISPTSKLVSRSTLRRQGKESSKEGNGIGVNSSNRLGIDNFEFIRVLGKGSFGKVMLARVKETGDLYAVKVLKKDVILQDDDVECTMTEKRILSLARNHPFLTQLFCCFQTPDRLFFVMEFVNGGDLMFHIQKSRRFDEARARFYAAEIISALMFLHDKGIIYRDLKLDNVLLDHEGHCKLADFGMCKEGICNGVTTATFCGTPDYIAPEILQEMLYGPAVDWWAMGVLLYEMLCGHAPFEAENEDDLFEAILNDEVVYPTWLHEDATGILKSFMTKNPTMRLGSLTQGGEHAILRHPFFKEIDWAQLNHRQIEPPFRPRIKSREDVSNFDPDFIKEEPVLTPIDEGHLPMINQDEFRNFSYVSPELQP

Regarding `O=C(Nc1ccc(F)c(Nc2ccc3c(c2)CCCCC3=O)c1)c1cccc(F)c1` [Compound 109], the Residual activity is reported as 90 % of control in assay [1] (1.0E-05 M); 110 % of control in assay [1] (1.0E-06 M); 110 % of control in assay [2] (1.0E-05 M); 116 % of control in assay [2] (1.0E-06 M); 75 % of control in assay [3] (1.0E-05 M); 90 % of control in assay [3] (1.0E-06 M). The Residual activity in assay [4] (1.0E-05 M) is 84 % of control; in assay [4] (1.0E-06 M), 86 % of control; in assay [5] (1.0E-05 M) it was 85 % of control; in assay [5] (1.0E-06 M), 101 % of control; in assay [6] (1.0E-05 M), 92 % of control; in assay [6] (1.0E-06 M), 92 % of control.

In the case of `O=C(Cc1ccccc1)Nc1ccc(F)c(Nc2ccc3c(c2)CCCCC3=O)c1` [Compound 100], the Residual activity is reported as 94 % of control in assay [1] (1.0E-05 M); 101 % of control in assay [1] (1.0E-06 M); 115 % of control in assay [2] (1.0E-05 M); 116 % of control in assay [2] (1.0E-06 M); 82 % of control in assay [3] (1.0E-05 M); 94 % of control in assay [3] (1.0E-06 M). Further, the Residual activity in assay [4] (1.0E-05 M) is listed as 86 % of control; in assay [4] (1.0E-06 M), 93 % of control; in assay [5] (1.0E-05 M), 90 % of control; in assay [5] (1.0E-06 M), 101 % of control; in assay [6] (1.0E-05 M) it was 91 % of control; in assay [6] (1.0E-06 M), 101 % of control.
